The target in assay [1] is 5-HT2C (Homo sapiens (Human), UniProt P28335). Put plainly: HTRF IP-One antagonist assay, 5-HT2C.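 Note: clonal HEK293 line with low 5-HT2C density (10–20 fmol/mg), HTRF detection of IP-One, 10-point dose curves from 10 µM in 5-fold steps, triplicate points.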 In kind it is cell-based. Conditions: HEK293 cells stably expressing receptor, inositol phosphate accumulation, 80 nM 5-HT in Assay Buffer. For orientation: In TR-FRET formats the signal depends on donor and acceptor labels being close together.
Sequence of 5-HT2C (P28335 33-458): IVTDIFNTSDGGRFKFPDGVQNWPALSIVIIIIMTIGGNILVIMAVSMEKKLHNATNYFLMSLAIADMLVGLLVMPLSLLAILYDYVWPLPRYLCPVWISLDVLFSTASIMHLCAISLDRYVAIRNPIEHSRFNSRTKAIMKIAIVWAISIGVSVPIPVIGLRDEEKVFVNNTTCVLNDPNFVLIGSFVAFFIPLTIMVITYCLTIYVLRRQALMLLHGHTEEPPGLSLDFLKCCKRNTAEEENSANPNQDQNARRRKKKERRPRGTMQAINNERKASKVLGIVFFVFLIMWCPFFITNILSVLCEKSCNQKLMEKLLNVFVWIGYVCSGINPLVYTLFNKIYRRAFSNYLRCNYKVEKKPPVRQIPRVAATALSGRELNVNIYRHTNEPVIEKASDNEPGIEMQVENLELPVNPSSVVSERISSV
Assay [2] has as its target 5-HT2B (Homo sapiens (Human), UniProt P41595). Put plainly: HTRF IP-One antagonist assay, 5-HT2B.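 Note: clonal HEK293 line with low 5-HT2B expression (estimated 150-200 fmol/mg by radioligand binding), IP-One HTRF readout, 10-point curves from 10 µM in 5-fold steps, triplicate points.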 The class given is cell-based. To be noted: HEK293 cells stably expressing receptor, inositol phosphate accumulation, 80 nM 5-HT in Assay Buffer.
Assay [3] deals with T1, 5-HT2A (Homo sapiens (Human), UniProt P28223). Kind of assay: HTRF IP-One antagonist assay, 5-HT2A.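 Note: clonal line with low receptor density (about 50–70 fmol/mg), 10-point dose-response from 10 µM in 5-fold steps, HTRF detection after 1 hr, triplicate points.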 The class given is cell-based. To be noted: HEK293 cells stably expressing receptor, inositol phosphate accumulation, 80 nM 5-HT in Assay Buffer.
T1 sequence (P28223 whole entry): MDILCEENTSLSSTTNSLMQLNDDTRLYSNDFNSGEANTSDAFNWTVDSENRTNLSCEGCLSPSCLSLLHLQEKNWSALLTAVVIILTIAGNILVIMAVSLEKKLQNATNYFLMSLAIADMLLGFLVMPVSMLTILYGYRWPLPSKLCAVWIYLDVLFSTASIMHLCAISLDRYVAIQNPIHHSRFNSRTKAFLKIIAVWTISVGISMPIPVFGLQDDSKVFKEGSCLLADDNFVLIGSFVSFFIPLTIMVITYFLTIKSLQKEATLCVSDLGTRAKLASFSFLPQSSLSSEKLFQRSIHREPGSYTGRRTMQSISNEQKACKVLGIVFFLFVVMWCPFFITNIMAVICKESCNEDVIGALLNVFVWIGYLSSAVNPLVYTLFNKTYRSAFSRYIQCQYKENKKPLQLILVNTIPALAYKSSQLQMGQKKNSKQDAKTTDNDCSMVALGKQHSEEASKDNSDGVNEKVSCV
Assay [4] concerns the target T1, 5-HT2A. Kind of assay: Radioligand binding assay, [^3H]5-HT competition, 5-HT2A. To be noted: [^3H]5-HT radioligand, membranes of HEK293 cells expressing recombinant 5-HT2A; Ki from IC50 by Cheng-Prusoff; read-out: 5-HT2A serotonin binding Ki value.

pIC50, pKi: −log10 of the molar value. “And” between values parts separate entries of the source, which are not always exact repeats. Identical values can stand only once.

Sequence of 5-HT2B (P41595 whole entry): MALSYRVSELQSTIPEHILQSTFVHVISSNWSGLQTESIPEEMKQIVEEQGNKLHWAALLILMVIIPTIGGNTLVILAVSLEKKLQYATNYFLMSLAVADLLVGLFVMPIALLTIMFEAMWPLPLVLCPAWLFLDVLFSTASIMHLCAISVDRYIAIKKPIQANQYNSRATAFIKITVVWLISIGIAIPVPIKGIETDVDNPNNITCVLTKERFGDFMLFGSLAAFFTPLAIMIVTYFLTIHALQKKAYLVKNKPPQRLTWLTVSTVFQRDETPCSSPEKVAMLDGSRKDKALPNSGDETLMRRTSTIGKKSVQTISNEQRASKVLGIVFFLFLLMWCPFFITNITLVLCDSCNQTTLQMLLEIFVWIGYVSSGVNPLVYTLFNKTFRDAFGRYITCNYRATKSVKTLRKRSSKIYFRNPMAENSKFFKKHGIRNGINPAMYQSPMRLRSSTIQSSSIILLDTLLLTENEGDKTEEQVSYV

Usually pIC50 stands for the negative decadic logarithm of the IC50, by convention in mol/L. The low end stands for a large IC50, the high end for a small IC50. As a reminder, the pKi is the Ki on a negative log10 scale, so that one unit is a factor of ten. `Cc1ncnc(C)c1-c1cc(NC(=O)c2cccn2C)ccc1OCCN1CCCC1` [Compound 200, N-(3-(4,6-dimethylpyrimidin-5-yl)-4-(2-(pyrrolidin-1-yl)ethoxy)phenyl)-1-methyl-1H-pyrrole-2-carboxamide]: the pIC50 in assay [1] was 4.00; in assay [2], 4.00; in assay [3] it was 7.93. For the same molecule, the negative logarithm of the Ki (pKi) in assay [4] was 8.43.
Take `Cc1ncnc(C)c1-c1cc(NC(=O)c2ccnn2C)ccc1OCCN1CCCC1` [Compound 202, N-(3-(4,6-dimethylpyrimidin-5-yl)-4-(2-(pyrrolidin-1-yl)ethoxy)phenyl)-1-methyl-1H-pyrazole-5-carboxamide]: the pIC50 is 4.00 in assay [1], 4.00 in assay [2] and 8.20 in assay [3]. Further, the negative-log Ki (pKi) in assay [4] is 8.28.
Take `Cc1ncnc(C)c1-c1cc(NC(=O)c2cc(F)ccn2)ccc1OCCN1CCCC1` [Compound 209, N-(3-(4,6-dimethylpyrimidin-5-yl)-4-(2-(pyrrolidin-1-yl)ethoxy)phenyl)-4-fluoropicolinamide]: the negative logarithm of the IC50 (pIC50) in assay [1] is 4.00; in assay [2] it was 4.00; in assay [3] it was 7.58. The negative logarithm of the Ki (pKi) in assay [4] was 8.32.
Take `Cc1ncsc1C(=O)Nc1ccc(OCCN2CCCC2)c(-c2c(C)ncnc2C)c1` [Compound 214, N-(3-(4,6-dimethylpyrimidin-5-yl)-4-(2-(pyrrolidin-1-yl)ethoxy)phenyl)-4-methylthiazole-5-carboxamide]: the figures for the pIC50 in assay [1], in assay [2] and in assay [3] were 4.00, 4.00 and 8.29, respectively. In addition, the negative logarithm of the Ki (pKi) in assay [4] was 8.49.
As to `Cc1ncoc1C(=O)Nc1ccc(OCCN2CCCC2)c(-c2c(C)ncnc2C)c1` [Compound 217, N-(3-(4,6-dimethylpyrimidin-5-yl)-4-(2-(pyrrolidin-1-yl)ethoxy)phenyl)-4-methyloxazole-5-carboxamide], the values for the pIC50 in assay [1], in assay [2] and in assay [3] were 4.00, 4.00 and 7.73, respectively. Moreover, the pKi in assay [4] was 8.14.
For `Cc1ncnc(C)c1-c1cc(NC(=O)C2C3COCC32)ccc1OCCN1CCCC1` (stereo not drawn) [Compound 232, N-(3-(4,6-dimethylpyrimidin-5-yl)-4-(2-(pyrrolidin-1-yl)ethoxy)phenyl)-3-oxabicyclo[3.1.0]hexane-6-carboxamide], the figures for the pIC50 in assay [1], in assay [2] and in assay [3] were 4.00, 4.00 and 6.85, respectively. Moreover, in assay [4], the negative logarithm of the Ki (pKi) is 7.61.
Consider `Cc1ncnc(C)c1-c1cc(NC(=O)C2(F)CC2)ccc1OCCN1CCCC1` [Compound 233], for which the pIC50 is 4.00 in assay [1], 4.00 in assay [2] and 8.07 in assay [3]. Also, in assay [4], the pKi is 8.42 and 8.33.
For the molecule `Cc1ncnc(C)c1-c1cc(NC(=O)Cn2cccc2)ccc1OCCN1CCCC1` [Compound 243, N-[3-(4,6-dimethylpyrimidin-5-yl)-4-(2-pyrrolidin-1-ylethoxy)phenyl]-2-pyrrol-1-yl-acetamide], the figures for the pIC50 in assay [1], in assay [2] and in assay [3] were 4.00, 4.00 and 7.83, respectively. Besides, the negative logarithm of the Ki (pKi) in assay [4] was 8.07.
Turning to `COC1(C(=O)Nc2ccc(OCCN3CCCC3)c(-c3c(C)ncnc3C)c2)CC1` [Compound 244, N-[3-(4,6-dimethylpyrimidin-5-yl)-4-(2-pyrrolidin-1-ylethoxy)phenyl]-1-methoxy-cyclopropanecarboxamide], the pIC50 in assay [1] is 4.00; in assay [2] it was 4.00; in assay [3], 7.87. In assay [4], the negative-log Ki (pKi) was 8.19.
`Cc1ncnc(C)c1-c1cc(NC(=O)C2CC2)ccc1OCCN1CCCC1` [Compound 245, N-[3-(4,6-dimethylpyrimidin-5-yl)-4-(2-pyrrolidin-1-ylethoxy)phenyl]cyclopropanecarboxamide]: the pIC50 in assay [1] is 4.00; in assay [2], 4.00; in assay [3], 8.02. Further, in assay [4], the negative-log Ki (pKi) is 8.37.
As to `Cc1ncnc(C)c1-c1cc(NC(=O)Cc2cncs2)ccc1OCCN1CCCC1` [Compound 247, N-[3-(4,6-dimethylpyrimidin-5-yl)-4-(2-pyrrolidin-1-ylethoxy)phenyl]-2-thiazol-5-yl-acetamide], the pIC50 in assay [1] is 4.00; in assay [2], 4.00; in assay [3], 7.97. Moreover, the negative-log Ki (pKi) in assay [4] is 8.35.
With `Cc1ncsc1CC(=O)Nc1ccc(OCCN2CCCC2)c(-c2c(C)ncnc2C)c1` [Compound 250, N-(3-(4,6-dimethylpyrimidin-5-yl)-4-(2-(pyrrolidin-1-yl)ethoxy)phenyl)-2-(4-methylthiazol-5-yl)acetamide], the values for the pIC50 in assay [1], in assay [2] and in assay [3] were 4.00, 4.00 and 7.86, respectively. In addition, the negative-log Ki (pKi) in assay [4] is 8.04.
With `Cc1ncnc(C)c1-c1cc(NC(=O)CCc2nccs2)ccc1OCCN1CCCC1` [Compound 256, N-(3-(4,6-dimethylpyrimidin-5-yl)-4-(2-(pyrrolidin-1-yl)ethoxy)phenyl)-3-(thiazol-2-yl)propanamide], the figures for the negative logarithm of the IC50 (pIC50) in assay [1], in assay [2] and in assay [3] were 4.00, 4.00 and 7.25, respectively. Moreover, the pKi in assay [4] was 8.00.
In the case of `Cc1ncnc(C)c1-c1cc(NC(=O)CCc2cncs2)ccc1OCCN1CCCC1` [Compound 257, N-(3-(4,6-dimethylpyrimidin-5-yl)-4-(2-(pyrrolidin-1-yl)ethoxy)phenyl)-3-(thiazol-5-yl)propanamide], the pIC50 in assay [1] was 4.00; in assay [2] it was 4.00; in assay [3], 7.47. Moreover, in assay [4], the pKi is 7.83.
As to `Cc1ncnc(C)c1-c1cc(NC(=O)Cc2ccno2)ccc1OCCN1CCCC1` [Compound 263, N-(3-(4,6-dimethylpyrimidin-5-yl)-4-(2-(pyrrolidin-1-yl)ethoxy)phenyl)-2-(isoxazol-5-yl)acetamide], the figures for the negative-log IC50 (pIC50) in assay [1], in assay [2] and in assay [3] were 4.00, 4.00 and 7.44, respectively. Further, the negative logarithm of the Ki (pKi) in assay [4] is 8.00.
Regarding `Cc1ncc(CC(=O)Nc2ccc(OCCN3CCCC3)c(-c3c(C)ncnc3C)c2)s1` [Compound 266, N-(3-(4,6-dimethylpyrimidin-5-yl)-4-(2-(pyrrolidin-1-yl)ethoxy)phenyl)-2-(2-methylthiazol-5-yl)acetamide], the pIC50 in assay [1] is 4.00; in assay [2], 4.00; in assay [3], 8.28. The pKi in assay [4] is 8.39.
In the case of `Cc1ncnc(C)c1-c1cc(NC(=O)Cc2ccn(C)c2)ccc1OCCN1CCCC1` [Compound 268, N-[3-(4,6-dimethylpyrimidin-5-yl)-4-(2-pyrrolidin-1-ylethoxy)phenyl]-2-(1-methylpyrrol-3-yl)acetamide], the pIC50 is 4.00 in assay [1], 4.00 in assay [2] and 7.20 in assay [3]. The pKi in assay [4] is 8.11.
In the case of `Cc1ncnc(C)c1-c1cc(NC(=O)c2ccccc2)ccc1OCCN1CCCC1` [Compound 271, N-[3-(4,6-dimethylpyrimidin-5-yl)-4-(2-pyrrolidin-1-ylethoxy)phenyl]benzamide], the negative-log IC50 (pIC50) in assay [1] is 4.00; in assay [2], 4.00; in assay [3], 8.21. Also, in assay [4], the negative-log Ki (pKi) was 8.49.
On to `Cc1ncnc(C)c1-c1cc(NC(=O)c2ccc(F)cc2)ccc1OCCN1CCCC1` [Compound 272, N-(3-(4,6-dimethylpyrimidin-5-yl)-4-(2-(pyrrolidin-1-yl)ethoxy)phenyl)-4-fluorobenzamide], for which the pIC50 in assay [1] was 4.00; in assay [2], 5.57; in assay [3], 8.11. Also, the pKi in assay [4] is 8.61.
In the same order, the values of `Cc1ncnc(C)c1-c1cc(NC(=O)Cc2cccc(F)c2)ccc1OCCN1CCCC1` [Compound 275, N-(3-(4,6-dimethylpyrimidin-5-yl)-4-(2-(pyrrolidin-1-yl)ethoxy)phenyl)-2-(3-fluorophenyl)acetamide] are 4.00, 4.00, 8.20 and 8.77.
For the molecule `COc1ccc(CC(=O)Nc2ccc(OCCN3CCCC3)c(-c3c(C)ncnc3C)c2)cc1` [Compound 276, N-(3-(4,6-dimethylpyrimidin-5-yl)-4-(2-(pyrrolidin-1-yl)ethoxy)phenyl)-2-(4-methoxyphenyl)acetamide], the pIC50 was 4.00 in assay [1], 4.00 in assay [2] and 8.51 in assay [3]. The pKi in assay [4] was 9.07.
As for `Cc1ccccc1C(=O)Nc1ccc(OCCN2CCC2)c(-c2c(C)ncnc2C)c1` [Compound 321, N-(4-(2-(azetidin-1-yl)ethoxy)-3-(4,6-dimethylpyrimidin-5-yl)phenyl)-2-methylbenzamide], the negative-log IC50 (pIC50) in assay [1] is 4.00; in assay [2] it was 5.27; in assay [3] it was 7.59.
As to `Cc1ncnc(C)c1-c1cc(NC(=O)c2ncsc2C)ccc1OC[C@H]1CCCCN1` [Compound 435, (R)—N-(3-(4,6-dimethylpyrimidin-5-yl)-4-(piperidin-2-ylmethoxy)phenyl)-5-methylthiazole-4-carboxamide], the negative logarithm of the IC50 (pIC50) in assay [1] is 4.00; in assay [3] it was 7.36. Besides, the pKi in assay [4] was 7.97.
The like results for `Cc1ncnc(C)c1-c1cc(NC(=O)c2cccn2C)ccc1OC[C@H]1CCCCN1` [Compound 436, (R)—N-(3-(4,6-dimethylpyrimidin-5-yl)-4-(piperidin-2-ylmethoxy)phenyl)-1-methyl-1H-pyrrole-2-carboxamide] were, in that order, 4.00, 7.57 and 8.22.
In the same order, the values of `CCC[C@@H](F)C(=O)Nc1ccc(OC[C@H]2CCCCN2)c(-c2c(C)ncnc2C)c1` [Compound 441, (R)—N-[3-(4,6-dimethylpyrimidin-5-yl)-4-[[(2R)-2-piperidyl]methoxy]phenyl]-2-fluoro-pentanamide] are 4.00, 7.92 and 8.25.

The values above are taken from patent publication US20250270172A1, “Pyrimidine Derivatives As Modulators of the 5-HT2A Serotonin Receptor Useful For The Treatment of Disorders Related Thereto” (Arena Pharmaceuticals, Inc., priority 2020, published 2025).
